Experimental data reported in patent publication US11685726B2, “Pharmaceutical compositions of 6-(2-(2H-tetrazol-5-yl)ethyl)-6-fluorodecahydroisoquinoline-3-carboxylic acid and ester derivatives thereof” (Sea Pharmaceuticals LLC, priority 2020, dated 2023).

Key:
[1] = tested on: 6 Hz psychomotor seizure model in mice; assay: 6 Hz psychomotor seizure model in mice; format: in vivo, mouse; settings: DMC
Description: Adult male Carworth Farms (CF-1) mice (25-35 g) or young male Sprague-Dawley (SD) rats (100-150 g) were obtained from Charles River Laboratories Inc (Wilmington Mass. USA). CF1 mice were typically used for the 6 Hz psychomotor seizure model (6 Hz model described in the section below) but could also be used for the Maximal electroshock seizure (MES) model if performed in mice (Maximal electroshock seizure model described in the section below). SD rats were typically used for MES model but could also be used for 6 Hz psychomotor model if performed in rats. Animals were allowed free access to food and water, except during testing periods. After delivery from supplier lab to the in vivo pharmacology testing lab, animals were allowed sufficient time to acclimate to housing conditions prior to testing. Animals were housed in plastic cages in rooms with controlled humidity, ventilation, and lighting (12 hours lights on and 12 hours darkness). The animals were housed and fed in a manner consistent with the recommendations in the “Guide for Care and Use of Laboratory Animals” (National Research Council), and in accordance with guidelines set by an Institutional Animal Care and Use Committee (IACUC). Animal experiments were conducted in a manner consistent with Animal Research: Reporting of In Vivo Experiments (ARRIVE) guidelines (UK) and were approved by an IACUC. Test compounds or respective vehicle (placebo) were administered using an optimal fluid volume-to-body fluid ratio. Solutions or suspensions of test compounds, reference compounds or vehicles were administered to mice or rats in a volume of 0.01 mL/g body weight (mice) or 0.004 mL/g body weight (rats) by subcutaneous (s.c.) injection, intraperitoneal (i.p.) injection or by oral gavage (p.o.) unless otherwise indicated. Reference drug Levetiracetam or vehicle was administered by intraperitoneal (i.p.) injection.
Mice are given a topical anesthetic on the cornea of each eye prior to placement of corneal electrodes. 6 Hz psychomotor seizures were induced in mice (usually 8 animals per group) using electrical stimulation via corneal electrodes (6 Hz, 0.2 millisecond rectangular pulse, 3 second duration at 22 mA using a Grass 48 stimulator instrument as described in Barton M E et al 2001. Epilepsy Res 47:217-227). Prior to placement of corneal electrodes for electrical stimulation 0.5% tetracaine in saline (Sigma) drops were applied to each eye. Seizures and behaviors that arise from the electrical stimulus in the 6 Hz model include a minor clonic seizure phase followed by stereotyped automatistic behaviors including stun, forelimb clonus, twitching of the vibrissae and Straub-tail. […] Animals not presenting any of these behaviors were considered “protected” from seizures. This serves as a screen for in vivo pharmacological activity of test articles or reference anti-epilepsy drugs and defines anti-seizure activity as shown in several publications [Barton M E et al. 2001. Epilepsy Res. 47:217-227; Barton M E et al. 2003 Epilepsy Res. 56:17-26; Brown W C et al. 1953. J Pharmacol Exp Ther 107:273-283. Metcalf C S et al. 2017a. Epilepsia 58:484-493.; Metcalf C S et al. 2017c. Epilepsia 58:239-246.
Unless otherwise indicated pretreatment times of mice or rats were typically 0.5 hours for respective vehicle, Compounds 1, 3, 4, 6 or other compounds administered by subcutaneous or intraperitoneal route (unless other times indicated). A pretreatment time of 1 hour was used for Compounds 3, 4, 6 or other compounds administered by oral route unless other times indicated. Test compounds or respective vehicles were tested in some cases at other pretreatment times as indicated. A median effective dose (ED50) and 95% confidence interval (CI) were calculated using a Prism (Graphpad software). […]

AMPA receptor = assay: Whole cell patch-clamp recording of s-AMPA induced currents in pyramidal neurons of rat brain prefrontal cortex slices; format: cell-based; settings: rat brain slice PFC pyramidal neurons; n=4 to 5 experiments per concentration; read-out: IC50 of inhibition of peak amplitude responses to 20 μM s-AMPA
Experimental: (§1) Additionally biological activity of compounds as antagonists of AMPA receptors or NMDA receptors (also called ionotropic glutamate-gated ion channels) were conducted using ex vivo functional electrophysiological assays of pyramidal neurons in slices of rat brain prefrontal cortex. Effects of test compounds cf. reference compounds were studied by whole cell patch-clamp electrophysiology recordings of s-AMPA-induced currents or NMDA-induced currents, respectively, using rat brain slice prefrontal cortex (layer V) pyramidal neurons.
Male Sprague Dawley rats were supplied by Charles River Laboratories (Wilmington, Mass. USA) and were housed 4 per cage within a temperature (20.5-23.5° C.) and humidity (30-80%) controlled environment on a 12 hour light/dark cycle with access to food (Teklad Global Soy Protein, Cat. No. T.2920X10, Envigo, Indianapolis, Ind., USA) and water ad libitum. At 4-6 weeks of age rats were terminally anaesthetized using isofluorane [(1-chloro-2,2,2-trifluoroethyl difluoromethyl ether) supplied by Baxter Healthcare Corp, Deerfield, Ill., USA], and decapitated. The brain was removed and 300 μm thick coronal prefrontal cortex (PFC) or sagittal hippocampal slices were sectioned using a Vibratome microtome. After brain removal, and throughout slicing, the tissue was submerged in ice cold […] cerebrospinal fluid (aCSF). Once slices were cut, they were transferred to a beaker containing aCSF and left at room temperature for a minimum of 1 hour before commencing electrophysiological recordings. After this period, individual slices were transferred to a recording chamber continuously perfused with aCSF at a rate of 4-6 mL/min before commencing experiment protocols. aCSF composition (in mM): NaCl, 127; KCl, 1.9; KH2PO4, 1.2; CaCl2), 2.4; MgCl2, 1.3; NaHCO3, 26; D-glucose, 10; in water equilibrated with 95% Oxygen gas-5% CO2 gas (reagent suppliers listed below). Experiments investigating NMDA currents had aCSF supplemented with 10 μM glycine (reagents suppliers listed below). All experiments were conducted following protocols with the approval of an Institutional Animal Care and Use Committee (IACUC).
Whole cell patch-clamp recordings were performed from Layer V prefrontal cortex pyramidal neurons at room temperature using the ‘visualized’ version of the patch-clamp technique. […]
(§2) All test compound experiments were carried out in the voltage-clamp recording configuration of the whole cell patch-clamp technique and all recordings performed at a holding potential of −60 mV. Recordings were monitored on a Dell personal computer (PC) running Axon pClamp software (Molecular Devices, Sunnyvale, Calif., USA) and digitized at 10 kHz. […]

NMDA receptor = assay: Whole cell patch-clamp recording of NMDA induced currents in pyramidal neurons of rat brain prefrontal cortex slices; format: cell-based; settings: 30 μM; rat brain slice PFC pyramidal neurons; n=4
Experimental: as §1
Male Sprague Dawley rats were supplied by Charles River Laboratories (Wilmington, Mass. USA) and were housed 4 per cage within a temperature (20.5-23.5° C.) and humidity (30-80%) controlled environment on a 12 hour light/dark cycle with access to food (Teklad Global Soy Protein, Cat. No. T.2920X10, Envigo, Indianapolis, Ind., USA) and water ad libitum. […]
as §2

## CCOC(=O)[C@@H]1C[C@H]2C[C@@](F)(CCc3nnn[nH]3)CC[C@H]2CN1 [Compound 3, ethyl (3S,4aS,6S,8aR)-6-fluoro-6-[2-(1H-1,2,3,4-tetrazol-5-yl)ethyl]-decahydroisoquinoline-3-carboxylate]
[1]; 13 mg/kg p.o., 1 hour
  6 Hz Test Results (# mice protected from seizure/# mice tested): 5/8
[1]; 13 mg/kg s.c., 0.5 hours
  6 Hz Test Results (# mice protected from seizure/# mice tested): 8/8

## CCC(CC)COC(=O)[C@@H]1C[C@H]2C[C@@](F)(CCc3nnn[nH]3)CC[C@H]2CN1 [Compound 4, 2-ethylbutyl (3S,4aS,6S,8aR)-6-fluoro-6-[2-(1H-1,2,3,4-tetrazol-5-yl)ethyl]-decahydroisoquinoline-3-carboxylate]
[1]; 13 mg/kg p.o., 1 hour
  6 Hz Test Results (# mice protected from seizure/# mice tested): 6/7
[1]; 13 mg/kg s.c., 0.5 hours
  6 Hz Test Results (# mice protected from seizure/# mice tested): 8/8

## O=C(OC1CCCCC1)[C@@H]1C[C@H]2C[C@@](F)(CCc3nn[nH]n3)CC[C@H]2CN1 [Compound 6, cyclohexyl (3S,4aS,6S,8aR)-6-fluoro-6-[2-(1H-1,2,3,4-tetrazol-5-yl)ethyl]-decahydroisoquinoline-3-carboxylate]
[1]; 13 mg/kg p.o., 1 hour
  6 Hz Test Results (# mice protected from seizure/# mice tested): 8/8

## O=C(O)[C@@H]1C[C@H]2C[C@@H](CCc3nn[nH]n3)CC[C@H]2CN1 [Tezampanel, reference compound]
AMPA receptor
  IC50: 481 nM
NMDA receptor
  inhibition of peak amplitude responses to 50 μM NMDA induced currents: 40%+/−2%
